Assay results taken from PubChem BioAssay AID2060600 (Molecular Pharmacology Branch, DTP, NCI, 2025).

Test system: 996289-038-R-J1-PDC complex spheroid viability
Assay: Anticancer human tumor 996289-038-R-J1-PDC patient-derived colon adenocarcinoma cell line growth inhibition [CLK]
Conditions: for IC50: curve of first compound; for viability, T/C: stronger effect = lower value; active = viability on the fitted dose curve at most 10% of control; inactive = the rest
Description: A high-throughput screen of multi-cell type tumor spheroids was designed to identify active combinations of […] and targeted small molecules. Complex spheroids include a stromal component modeled by human endothelial cells (HUVEC) and fibroblasts modeled by human mesenchymal stem cells (MSCs). The concentration ranges selected for each drug and investigational agent were based upon clinically achievable concentrations if the clinical Cmax of the agent was known.
Compounds. The drugs and investigational agents: cirtuvivint (SM08502; NSC835563), CC-671 (NSC850746), vemurafenib (NSC761431), tapotoclax (NSC804041), sotorasib (NSC818433), adagrasib (NSC831453), MRTX-1133 (NSC836407), BAY2416964 (NSC825713), copanlisib (NSC816437), inavolisib (NSC800729), abemaciclib (NSC768073), osimertinib (NSC779217), entinostat (NSC756642), eltanexor (KPT-8602, NSC794443), venetoclax (NSC766270), ceralasertib (NSC777638), bortezomib (NSC756655), olaparib (NSC753686), talazoparib (NSC767125), alisertib (NSC759677), peposertib (NSC802822), gemcitabine (NSC613327), 5-fluorouracil (NSC19893), SN-38 (NSC673596), oxaliplatin (NSC266046), paclitaxel (NSC125973), and doxorubicin (NSC123127), were obtained from the National Cancer Institute (NCI) Developmental Therapeutics Program Chemical Repository. The FDA-approved anticancer drug set is available from the Developmental Therapeutics Program at https://dtp.cancer.gov/organization/dscb/obtaining/available plates.htm. […] The stock solutions were prepared in dimethyl sulfoxide (DMSO, Sigma-Aldrich, St. Louis, MO, cat. D2650), except for the platinum complexes which were prepared in saline (Quality Biological, Gaithersburg, MD, cat. 114-055-101), at 800-fold the tested concentration and stored at -70 degrees C prior to their use. All drugs and investigational agents were tested over a range starting from a high concentration at or near the clinical Cmax and decreasing in half-log increments. If the clinical Cmax for an agent had not been determined, the highest concentration tested was 10 microM.
Cell Culture. All cells were maintained in an incubator at 37 degrees C and 5% CO2 with 95% humidity. The PDC lines were cultured according to standard operating procedures established by the NCI PDMR. Briefly, all PDCs were thawed and cultured in Matrigel-coated flasks prepared with a working solution of 1X Ham's F-12 nutrient mix, without supplementation (Invitrogen, Waltham, MA, cat. 11765054), 100 U/mL penicillin-streptomycin (Invitrogen, cat. 15140122), and 2.5% Matrigel (Corning Inc., Corning, NY, cat. 354248) for the first three passages. The 947758-054-R-J2-PDC line was cultured in 6B/Colon 1A media, which includes advanced DMEM/F-12 (Thermo Fisher Scientific, cat. 12634028), 10 mM HEPES (Thermo Fisher Scientific, cat. 15630080), 1X GlutaMAX supplement (Thermo Fisher Scientific, cat. 35050061), 0.1 mg/mL primocin (InvivoGen, cat. ant-pm-2), 10% defined fetal bovine serum, heat inactivated (HyClone Laboratories Inc., cat. SH30070.03HI), 1.25 mM N-Acetyl-L-cysteine (Sigma-Aldrich, cat. A9165), 10 mM nicotinamide (Sigma-Aldrich, cat. N0636), 1X B-27 supplement (Thermo Fisher Scientific, cat. 17504044), 1X N-2 supplement (Thermo Fisher Scientific, cat. 17502048), and 10 microM Y-27632 dihydrochloride (Tocris Bioscience, cat. 1254). The 876862-298-R-J1-PDC was cultured in 6E media, which includes all 6B/Colon 1A media components plus 50% L-WRN conditioned media (ATCC, cat. CRL-3276), 50 ng/mL recombinant human EGF recombinant protein (hEGF; Thermo Fisher Scientific, cat. PHG0311), 10 ng/mL recombinant human fibroblast growth factor 10 (hGFG-10; PeproTech, cat. 100-26), 1 ng/mL recombinant human fibroblast growth factor 2 (hFGF-2; PeproTech, cat. 100-18B), and 1 µM prostaglandin E2 (PGE2; Tocris, cat. 2296). The 227483-062-R1-J1-PDC line was cultured in Panc media, containing all 6E components except hFGF-2, with the addition of 500 nM SB-431542 (Selleckchem, cat. S1067) and 10 nM gastrin (Tocris, cat. 3006). […]

[1] = second compound 0.0316 µM, first compound 0.0316 µM
[2] = second compound 0.0316 µM, first compound 0.1 µM
[3] = second compound 0.0316 µM, first compound 0.316 µM
[4] = second compound 0.0316 µM, first compound 1 µM
[5] = second compound 0.0316 µM, first compound 3.16 µM
[6] = second compound 0.0316 µM, first compound 10 µM
[7] = second compound 0.1 µM, first compound 0.0316 µM
[8] = second compound 0.1 µM, first compound 0.1 µM
[9] = second compound 0.1 µM, first compound 0.316 µM
[10] = second compound 0.1 µM, first compound 1 µM
[11] = second compound 0.1 µM, first compound 3.16 µM
[12] = second compound 0.1 µM, first compound 10 µM
[13] = second compound 0.316 µM, first compound 0.0316 µM
[14] = second compound 0.316 µM, first compound 0.1 µM
[15] = second compound 0.316 µM, first compound 0.316 µM
[16] = second compound 0.316 µM, first compound 1 µM
[17] = second compound 0.316 µM, first compound 3.16 µM
[18] = second compound 0.316 µM, first compound 10 µM
[19] = second compound 1 µM, first compound 0.0316 µM
[20] = second compound 1 µM, first compound 0.1 µM
[21] = second compound 1 µM, first compound 0.316 µM
[22] = second compound 1 µM, first compound 1 µM
[23] = second compound 1 µM, first compound 3.16 µM
[24] = second compound 1 µM, first compound 10 µM
[25] = second compound 3.16 µM, first compound 0.0316 µM
[26] = second compound 3.16 µM, first compound 0.1 µM
[27] = second compound 3.16 µM, first compound 0.316 µM
[28] = second compound 3.16 µM, first compound 1 µM
[29] = second compound 3.16 µM, first compound 3.16 µM
[30] = second compound 3.16 µM, first compound 10 µM
[31] = second compound 10 µM, first compound 0.0316 µM
[32] = second compound 10 µM, first compound 0.1 µM
[33] = second compound 10 µM, first compound 0.316 µM
[34] = second compound 10 µM, first compound 1 µM
[35] = second compound 10 µM, first compound 3.16 µM
[36] = second compound 10 µM, first compound 10 µM
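Also: spheroids exposed to the agents for 7 days before readout.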

C=CC(=O)N1CCN(c2nc(=O)n(-c3c(C)ccnc3C(C)C)c3nc(-c4c(O)cccc4F)c(F)cc23)C(C)C1 (centres undefined) + CN1CCN(c2cc(C(=O)Nc3cc4cc(-c5cnn(C)c5)ccc4cn3)ccn2)CC1
active: viability, T/C [19] 8.05% | viability, T/C [20] 7.07% | viability, T/C [21] 9.28% | viability, T/C [22] 8.41% | viability, T/C [23] 10.3% | viability, T/C [24] 6.56% | viability, T/C [25] 1.21% | viability, T/C [26] 1.63% | viability, T/C [27] 1% | viability, T/C [28] 1.24% | viability, T/C [29] 1.69% | viability, T/C [30] 1.89% | viability, T/C [31] 0.33% | viability, T/C [32] 1.03% | viability, T/C [33] 0.3% | viability, T/C [34] 0.75% | viability, T/C [35] 0.42% | viability, T/C [36] 1.33%
> 10000 nM: IC50 (second compound 0.0316 µM) | IC50 (second compound 0.1 µM) | IC50 (second compound 0.316 µM)
< 31.6 nM: IC50 (second compound 1 µM) | IC50 (second compound 3.16 µM) | IC50 (second compound 10 µM)
inactive: viability, T/C [1] 112% | viability, T/C [2] 111% | viability, T/C [3] 111% | viability, T/C [4] 104% | viability, T/C [5] 114% | viability, T/C [6] 109% | viability, T/C [7] 97.5% | viability, T/C [8] 102% | viability, T/C [9] 91.6% | viability, T/C [10] 103% | viability, T/C [11] 102% | viability, T/C [12] 99.3% | viability, T/C [13] 80.5% | viability, T/C [14] 73.1% | viability, T/C [15] 74.2% | viability, T/C [16] 82.5% | viability, T/C [17] 85.3% | viability, T/C [18] 77.7%

COC1C=CCC(C)C(C)S(=O)(=O)NC(=O)c2ccc3c(c2)N(CC2CCC21)CC1(CCCc2cc(Cl)ccc21)CO3 (centres undefined) + CN1CCN(c2cc(C(=O)Nc3cc4cc(-c5cnn(C)c5)ccc4cn3)ccn2)CC1
inactive: viability, T/C [1] 98.8% | viability, T/C [2] 106% | viability, T/C [3] 96.2% | viability, T/C [4] 79.5% | viability, T/C [5] 60.4% | viability, T/C [6] 30.1% | viability, T/C [7] 93.3% | viability, T/C [8] 86.1% | viability, T/C [9] 78.8% | viability, T/C [10] 78% | viability, T/C [11] 45.6% | viability, T/C [12] 27.7% | viability, T/C [13] 60.6% | viability, T/C [14] 74.7% | viability, T/C [15] 63.6% | viability, T/C [16] 53.9% | viability, T/C [17] 39.6% | viability, T/C [18] 21%
4530 nM: IC50 (second compound 0.0316 µM)
1470 nM: IC50 (second compound 0.316 µM)
< 31.6 nM: IC50 (second compound 1 µM) | IC50 (second compound 3.16 µM) | IC50 (second compound 10 µM)
active: viability, T/C [19] 7.76% | viability, T/C [20] 8.39% | viability, T/C [21] 6.69% | viability, T/C [22] 4.97% | viability, T/C [23] 4.86% | viability, T/C [24] 2.21% | viability, T/C [25] 1.75% | viability, T/C [26] 0.92% | viability, T/C [27] 1.25% | viability, T/C [28] 1.45% | viability, T/C [29] 1.53% | viability, T/C [30] 0.93% | viability, T/C [31] 1.98% | viability, T/C [32] 1.21% | viability, T/C [33] 0.68% | viability, T/C [34] 0.74% | viability, T/C [35] 0.47% | viability, T/C [36] 1.7%
2780 nM: IC50 (second compound 0.1 µM)
